Source: ChEMBL document CHEMBL3797178, “Synthesis, antimycobacterial and antibacterial activity of 1-(6-amino-3,5-difluoropyridin-2-yl)fluoroquinolone derivatives containing an oxime functional moiety” (2016)
Converted amounts (≈) assume the structure as drawn.

Assays:
Format in all cases: functional
Pseudomonas aeruginosa [1] = assay: Antibacterial activity against Pseudomonas aeruginosa 14-19 after 18 to 24 hrs by CLSI M100-S11 method
Escherichia coli [2] = assay: Antibacterial activity against extended-spectrum beta-lactamase-producing Escherichia coli 14-2 after 18 to 24 hrs by CLSI M100-S11 method
Klebsiella pneumoniae [3] = assay: Antibacterial activity against Klebsiella pneumoniae 14-4 after 18 to 24 hrs by CLSI M100-S11 method
Pseudomonas aeruginosa [4] = assay: Antibacterial activity against Pseudomonas aeruginosa 14-16 after 18 to 24 hrs by CLSI M100-S11 method
Klebsiella pneumoniae [5] = assay: Antibacterial activity against Klebsiella pneumoniae 14-1 after 18 to 24 hrs by CLSI M100-S11 method
Staphylococcus aureus [6] = assay: Antibacterial activity against methicillin-resistant Staphylococcus aureus 14-5 after 18 to 24 hrs by CLSI M100-S11 method
[7] = tested on: Staphylococcus epidermidis; assay: Antibacterial activity against methicillin-resistant Staphylococcus epidermidis 14-37 after 18 to 24 hrs by CLSI M100-S11 method
[8] = tested on: Staphylococcus epidermidis; assay: Antibacterial activity against methicillin-sensitive Staphylococcus epidermidis 14-2 after 18 to 24 hrs by CLSI M100-S11 method
Pseudomonas aeruginosa [9] = assay: Antibacterial activity against Pseudomonas aeruginosa 14-15 after 18 to 24 hrs by CLSI M100-S11 method
Klebsiella pneumoniae [10] = assay: Antibacterial activity against extended-spectrum beta-lactamase-producing Klebsiella pneumoniae 14-19 after 18 to 24 hrs by CLSI M100-S11 method
Staphylococcus aureus [11] = assay: Antibacterial activity against methicillin-sensitive Staphylococcus aureus 14-2 after 18 to 24 hrs by CLSI M100-S11 method
Escherichia coli [12] = assay: Antibacterial activity against Escherichia coli 14-1 after 18 to 24 hrs by CLSI M100-S11 method
Escherichia coli [13] = assay: Antibacterial activity against extended-spectrum beta-lactamase-producing Escherichia coli 14-1 after 18 to 24 hrs by CLSI M100-S11 method
Enterococcus faecalis [14] = assay: Antibacterial activity against Enterococcus faecalis 14-2 after 18 to 24 hrs by CLSI M100-S11 method
Staphylococcus aureus [15] = assay: Antibacterial activity against Staphylococcus aureus CMCC 26003 after 18 to 24 hrs by CLSI M100-S11 method
Klebsiella pneumoniae [16] = assay: Antibacterial activity against extended-spectrum beta-lactamase-producing Klebsiella pneumoniae 14-17 after 18 to 24 hrs by CLSI M100-S11 method
Pseudomonas aeruginosa [17] = assay: Antibacterial activity against Pseudomonas aeruginosa ATCC 27853 after 18 to 24 hrs by CLSI M100-S11 method
Pseudomonas aeruginosa [18] = assay: Antibacterial activity against Pseudomonas aeruginosa 14-14 after 18 to 24 hrs by CLSI M100-S11 method
Klebsiella pneumoniae [19] = assay: Antibacterial activity against Klebsiella pneumoniae 14-2 after 18 to 24 hrs by CLSI M100-S11 method
[20] = tested on: Staphylococcus epidermidis; assay: Antibacterial activity against methicillin-sensitive Staphylococcus epidermidis 14-4 after 18 to 24 hrs by CLSI M100-S11 method
Escherichia coli [21] = assay: Antibacterial activity against Escherichia coli ATCC 25922 after 18 to 24 hrs by CLSI M100-S11 method
Pseudomonas aeruginosa [22] = assay: Antibacterial activity against Pseudomonas aeruginosa 14-9 after 18 to 24 hrs by CLSI M100-S11 method
Enterococcus faecalis [23] = assay: Antibacterial activity against Enterococcus faecalis 14-1 after 18 to 24 hrs by CLSI M100-S11 method
Enterococcus faecium [24] = assay: Antibacterial activity against Enterococcus faecium 14-1 after 18 to 24 hrs by CLSI M100-S11 method
Enterococcus faecalis [25] = assay: Antibacterial activity against Enterococcus faecalis 14-3 after 18 to 24 hrs by CLSI M100-S11 method
Klebsiella pneumoniae [26] = assay: Antibacterial activity against Klebsiella pneumoniae 14-3 after 18 to 24 hrs by CLSI M100-S11 method
[27] = tested on: Mycobacterium tuberculosis; assay: Antimycobacterial activity against Mycobacterium tuberculosis H37Rv ATCC 27294 after 3 days by microplate Alamar Blue assay; settings: H37Rv ATCC 27294, 72 h
Enterococcus faecium [28] = assay: Antibacterial activity against Enterococcus faecium 14-2 after 18 to 24 hrs by CLSI M100-S11 method
Staphylococcus aureus [29] = assay: Antibacterial activity against methicillin-sensitive Staphylococcus aureus 14-3 after 18 to 24 hrs by CLSI M100-S11 method
[30] = tested on: Staphylococcus epidermidis; assay: Antibacterial activity against methicillin-resistant Staphylococcus epidermidis 14-39 after 18 to 24 hrs by CLSI M100-S11 method
[31] = tested on: Staphylococcus epidermidis; assay: Antibacterial activity against methicillin-resistant Staphylococcus epidermidis 14-22 after 18 to 24 hrs by CLSI M100-S11 method
Streptococcus pneumoniae = assay: Antibacterial activity against Streptococcus pneumoniae ATCC 19615 after 18 to 24 hrs by CLSI M100-S11 method
Staphylococcus aureus [32] = assay: Antibacterial activity against methicillin-resistant Staphylococcus aureus 14-4 after 18 to 24 hrs by CLSI M100-S11 method
Staphylococcus aureus [33] = assay: Antibacterial activity against methicillin-sensitive Staphylococcus aureus 14-4 after 18 to 24 hrs by CLSI M100-S11 method
Escherichia coli [34] = assay: Antibacterial activity against Escherichia coli 14-2 after 18 to 24 hrs by CLSI M100-S11 method
[35] = tested on: Staphylococcus epidermidis; assay: Antibacterial activity against methicillin-sensitive Staphylococcus epidermidis 14-6 after 18 to 24 hrs by CLSI M100-S11 method
Klebsiella pneumoniae [36] = assay: Antibacterial activity against extended-spectrum beta-lactamase-producing Klebsiella pneumoniae 14-18 after 18 to 24 hrs by CLSI M100-S11 method

Structure (SMILES) | MIC (Pseudomonas aeruginosa [1]) [µg/mL] | MIC (Escherichia coli [2]) [µg/mL] | MIC (Klebsiella pneumoniae [3]) [µg/mL] | MIC (Pseudomonas aeruginosa [4]) [µg/mL] | MIC (Klebsiella pneumoniae [5]) [µg/mL] | MIC (Staphylococcus aureus [6]) [µg/mL] | MIC [7] [µg/mL] | MIC [8] [µg/mL] | MIC (Pseudomonas aeruginosa [9]) [µg/mL] | MIC (Klebsiella pneumoniae [10]) [µg/mL] | MIC (Staphylococcus aureus [11]) [µg/mL] | MIC (Escherichia coli [12]) [µg/mL] | MIC (Escherichia coli [13]) [µg/mL] | MIC (Enterococcus faecalis [14]) [µg/mL] | MIC (Staphylococcus aureus [15]) [µg/mL] | MIC (Klebsiella pneumoniae [16]) [µg/mL] | MIC (Pseudomonas aeruginosa [17]) [µg/mL] | MIC (Pseudomonas aeruginosa [18]) [µg/mL] | MIC (Klebsiella pneumoniae [19]) [µg/mL] | MIC [20] [µg/mL] | further results
CCO/N=C1\CN(c2nc3c(cc2F)c(=O)c(C(=O)O)cn3-c2nc(N)c(F)cc2F)CC1CN (stereo unspecified) | 32 (≈ 65.1 µM) | 128 (≈ 260 µM) | 128 (≈ 260 µM) | 16 (≈ 32.6 µM) | 64 (≈ 130 µM) | 64 (≈ 130 µM) | 64 (≈ 130 µM) | 64 (≈ 130 µM) | 16 (≈ 32.6 µM) | 128 (≈ 260 µM) | 0.25 (≈ 0.509 µM) | 64 (≈ 130 µM) | 8 (≈ 16.3 µM) | 16 (≈ 32.6 µM) | 0.06 (≈ 0.122 µM) | 64 (≈ 130 µM) | 4 (≈ 8.14 µM) | 16 (≈ 32.6 µM) | 128 (≈ 260 µM) | 32 (≈ 65.1 µM) | MIC (Escherichia coli [21]): 0.5 µg/mL (≈ 1.02 µM); MIC (Pseudomonas aeruginosa [22]): 16 µg/mL (≈ 32.6 µM); MIC (Enterococcus faecalis [23]): 16 µg/mL (≈ 32.6 µM); MIC (Enterococcus faecium [24]): 128 µg/mL (≈ 260 µM); MIC (Enterococcus faecalis [25]): 32 µg/mL (≈ 65.1 µM); MIC (Klebsiella pneumoniae [26]): 128 µg/mL (≈ 260 µM); MIC [27]: 6.56 µg/mL (≈ 13.3 µM); MIC (Enterococcus faecium [28]): 8 µg/mL (≈ 16.3 µM); MIC (Staphylococcus aureus [29]): 0.5 µg/mL (≈ 1.02 µM); MIC [30]: 32 µg/mL (≈ 65.1 µM); MIC [31]: 32 µg/mL (≈ 65.1 µM); MIC (Streptococcus pneumoniae): 16 µg/mL (≈ 32.6 µM); MIC (Staphylococcus aureus [32]): 64 µg/mL (≈ 130 µM); MIC (Staphylococcus aureus [33]): 0.5 µg/mL (≈ 1.02 µM); MIC (Escherichia coli [34]): 64 µg/mL (≈ 130 µM); MIC [35]: 32 µg/mL (≈ 65.1 µM); MIC (Klebsiella pneumoniae [36]): 32 µg/mL (≈ 65.1 µM)
CO/N=C1\CN(c2nc3c(cc2F)c(=O)c(C(=O)O)cn3-c2nc(N)c(F)cc2F)[C@H]1CN | 32 (≈ 69.1 µM) | > 128 | > 128 | 32 (≈ 69.1 µM) | > 128 | > 128 | > 128 | > 128 | 64 (≈ 138 µM) | > 128 | 8 (≈ 17.3 µM) | > 128 | 64 (≈ 138 µM) | > 128 | 4 (≈ 8.63 µM) | > 128 | 16 (≈ 34.5 µM) | 64 (≈ 138 µM) | > 128 | 64 (≈ 138 µM) | MIC (Escherichia coli [21]): 2 µg/mL (≈ 4.32 µM); MIC (Pseudomonas aeruginosa [22]): 32 µg/mL (≈ 69.1 µM); MIC (Enterococcus faecalis [23]): > 128 µg/mL; MIC (Enterococcus faecium [24]): > 128 µg/mL; MIC (Enterococcus faecalis [25]): > 128 µg/mL; MIC (Klebsiella pneumoniae [26]): > 128 µg/mL; MIC [27]: > 32 µg/mL; MIC (Enterococcus faecium [28]): 128 µg/mL (≈ 276 µM); MIC (Staphylococcus aureus [29]): 8 µg/mL (≈ 17.3 µM); MIC [30]: > 128 µg/mL; MIC [31]: > 128 µg/mL; MIC (Streptococcus pneumoniae): 64 µg/mL (≈ 138 µM); MIC (Staphylococcus aureus [32]): > 128 µg/mL; MIC (Staphylococcus aureus [33]): 4 µg/mL (≈ 8.63 µM); MIC (Escherichia coli [34]): > 128 µg/mL; MIC [35]: 64 µg/mL (≈ 138 µM); MIC (Klebsiella pneumoniae [36]): 64 µg/mL (≈ 138 µM)
CCO/N=C1\CN(c2nc3c(cc2F)c(=O)c(C(=O)O)cn3-c2nc(N)c(F)cc2F)[C@@H]1CN | 128 (≈ 268 µM) | > 128 | > 128 | 128 (≈ 268 µM) | > 128 | > 128 | > 128 | > 128 | 128 (≈ 268 µM) | > 128 | 32 (≈ 67 µM) | > 128 | > 128 | > 128 | 16 (≈ 33.5 µM) | > 128 | 128 (≈ 268 µM) | 128 (≈ 268 µM) | > 128 | > 128 | MIC (Escherichia coli [21]): 16 µg/mL (≈ 33.5 µM); MIC (Pseudomonas aeruginosa [22]): 128 µg/mL (≈ 268 µM); MIC (Enterococcus faecalis [23]): > 128 µg/mL; MIC (Enterococcus faecium [24]): > 128 µg/mL; MIC (Enterococcus faecalis [25]): > 128 µg/mL; MIC (Klebsiella pneumoniae [26]): > 128 µg/mL; MIC [27]: > 32 µg/mL; MIC (Enterococcus faecium [28]): 128 µg/mL (≈ 268 µM); MIC (Staphylococcus aureus [29]): 32 µg/mL (≈ 67 µM); MIC [30]: > 132 µg/mL; MIC [31]: > 128 µg/mL; MIC (Streptococcus pneumoniae): 64 µg/mL (≈ 134 µM); MIC (Staphylococcus aureus [32]): > 128 µg/mL; MIC (Staphylococcus aureus [33]): 32 µg/mL (≈ 67 µM); MIC (Escherichia coli [34]): > 128 µg/mL; MIC [35]: > 128 µg/mL; MIC (Klebsiella pneumoniae [36]): > 128 µg/mL
